The values that follow are results of earlier work, collected in patent US7238683B2, “Fused phenylalanine derivatives as dipeptidyl peptidase-iv inhibitors for the treatment or prevention of diabetes” (Merck & Co., Inc., priority 2003, dated 2007).

Each structure is given as a SMILES string.

Data set [1] relates to hematopoiesis. As to conditions: mouse, cyclophosphamide-induced neutropenia.
In data set [2] the target is T1, DP-IV (Homo sapiens, UniProt P27487).
T1 construct: GRP is rapidly degraded in plasma to GRF[3-44]; from tissue
T1 sequence (P27487 whole entry): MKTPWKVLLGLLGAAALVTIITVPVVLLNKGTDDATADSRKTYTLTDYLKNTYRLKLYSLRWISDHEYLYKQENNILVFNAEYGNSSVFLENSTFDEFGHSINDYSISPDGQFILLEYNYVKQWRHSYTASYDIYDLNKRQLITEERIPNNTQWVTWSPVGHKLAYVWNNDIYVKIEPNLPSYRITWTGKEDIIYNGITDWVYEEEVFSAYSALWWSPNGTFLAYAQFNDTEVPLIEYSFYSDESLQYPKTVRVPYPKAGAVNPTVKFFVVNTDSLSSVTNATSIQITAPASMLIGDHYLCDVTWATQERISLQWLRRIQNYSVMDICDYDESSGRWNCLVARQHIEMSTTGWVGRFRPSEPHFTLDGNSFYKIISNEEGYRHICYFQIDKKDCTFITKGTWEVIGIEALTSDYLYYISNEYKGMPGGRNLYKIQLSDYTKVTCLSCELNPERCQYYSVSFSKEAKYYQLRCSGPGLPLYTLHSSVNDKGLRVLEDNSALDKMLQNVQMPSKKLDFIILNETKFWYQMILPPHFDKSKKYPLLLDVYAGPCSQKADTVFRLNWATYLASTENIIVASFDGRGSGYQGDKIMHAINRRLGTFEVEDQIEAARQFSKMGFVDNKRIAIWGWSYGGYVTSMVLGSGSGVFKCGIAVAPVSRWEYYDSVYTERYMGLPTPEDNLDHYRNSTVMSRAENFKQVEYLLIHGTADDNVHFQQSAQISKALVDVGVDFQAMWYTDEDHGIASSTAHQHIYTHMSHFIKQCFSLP

For `CC(C)[C@H](N)C(=O)N1CCC[C@H]1B(O)O` [Val-Boro-Pro], in data set [1], the effect on hematopoiesis result is given as “stimulated hematopoiesis”.
For the compound `CC[C@H](C)[C@H](N)C(=O)N1CCC[C@H]1C(=O)N[C@H](C(=O)O)[C@@H](C)CC` [diprotin A], in data set [2], the “degradation of GRF in plasma to GRF[3-44]” value is “prevented”.
